Measured values from ChEMBL document CHEMBL4417636, “Small molecule inhibitors of pendrin ion exchange and pharmaceutical compositions” (2017).
pIC50: −log10 of the molar value. Activity calls are given as the source filed them. No cut-off for these calls is given here.

Assays:
Pendrin [1] = target: T1, Pendrin (Homo sapiens, UniProt O43511); assay: Inhibition of human pendrin expressed in FRT cells co-expressing EYFP-HIF assessed as reduction in pendrin-mediated C17F exchange incubated for 10 mins by pH-sensitive fluorescent probe BCECF-AM based fluorescence assay relative to control; assay type: cell-based
T1 sequence (O43511 whole entry): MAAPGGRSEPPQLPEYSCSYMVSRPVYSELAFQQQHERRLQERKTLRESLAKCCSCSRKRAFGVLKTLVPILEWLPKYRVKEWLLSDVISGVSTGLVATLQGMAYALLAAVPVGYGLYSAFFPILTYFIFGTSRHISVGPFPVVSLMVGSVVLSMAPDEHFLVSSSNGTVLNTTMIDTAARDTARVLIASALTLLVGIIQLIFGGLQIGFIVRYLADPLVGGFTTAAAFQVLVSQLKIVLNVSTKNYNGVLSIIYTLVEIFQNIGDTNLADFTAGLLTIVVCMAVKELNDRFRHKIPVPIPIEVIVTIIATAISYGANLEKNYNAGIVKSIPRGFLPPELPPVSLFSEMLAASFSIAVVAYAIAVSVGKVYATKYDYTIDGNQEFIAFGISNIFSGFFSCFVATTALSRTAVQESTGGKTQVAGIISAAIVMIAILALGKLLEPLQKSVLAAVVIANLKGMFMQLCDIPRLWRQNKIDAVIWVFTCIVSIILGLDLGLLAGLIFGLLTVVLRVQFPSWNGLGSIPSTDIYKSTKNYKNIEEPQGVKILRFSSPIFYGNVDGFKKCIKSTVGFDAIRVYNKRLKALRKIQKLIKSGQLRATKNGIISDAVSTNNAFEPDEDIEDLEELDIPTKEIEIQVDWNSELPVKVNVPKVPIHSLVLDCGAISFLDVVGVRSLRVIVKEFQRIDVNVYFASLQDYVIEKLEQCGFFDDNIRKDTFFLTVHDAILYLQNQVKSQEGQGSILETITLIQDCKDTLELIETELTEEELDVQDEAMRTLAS

Pendrin [2] = target: T1, Pendrin; assay: Inhibition of human pendrin expressed in FRT cells co-expressing EYFP-HIF assessed as reduction in pendrin-mediated C17NO3(-) exchange incubated for 10 mins by pH-sensitive fluorescent probe BCECF-AM based fluorescence assay relative to control; assay type: cell-based
Mus musculus = assay: Potentiation of 20 mg/kg, ip furosemide-induced acute diuretic action in CD1 mouse assessed as effect on urine pH at 10 mg/kg, ip relative to control; assay type: functional, organism-based
[3] = target: T2, Chloride anion exchanger (Homo sapiens) (UniProt P40879); assay: Inhibition of human SLC26A3 expressed in COS7 co-expressing EYFP-HIF assessed as reduction in SCN gradient
T2 sequence (whole entry): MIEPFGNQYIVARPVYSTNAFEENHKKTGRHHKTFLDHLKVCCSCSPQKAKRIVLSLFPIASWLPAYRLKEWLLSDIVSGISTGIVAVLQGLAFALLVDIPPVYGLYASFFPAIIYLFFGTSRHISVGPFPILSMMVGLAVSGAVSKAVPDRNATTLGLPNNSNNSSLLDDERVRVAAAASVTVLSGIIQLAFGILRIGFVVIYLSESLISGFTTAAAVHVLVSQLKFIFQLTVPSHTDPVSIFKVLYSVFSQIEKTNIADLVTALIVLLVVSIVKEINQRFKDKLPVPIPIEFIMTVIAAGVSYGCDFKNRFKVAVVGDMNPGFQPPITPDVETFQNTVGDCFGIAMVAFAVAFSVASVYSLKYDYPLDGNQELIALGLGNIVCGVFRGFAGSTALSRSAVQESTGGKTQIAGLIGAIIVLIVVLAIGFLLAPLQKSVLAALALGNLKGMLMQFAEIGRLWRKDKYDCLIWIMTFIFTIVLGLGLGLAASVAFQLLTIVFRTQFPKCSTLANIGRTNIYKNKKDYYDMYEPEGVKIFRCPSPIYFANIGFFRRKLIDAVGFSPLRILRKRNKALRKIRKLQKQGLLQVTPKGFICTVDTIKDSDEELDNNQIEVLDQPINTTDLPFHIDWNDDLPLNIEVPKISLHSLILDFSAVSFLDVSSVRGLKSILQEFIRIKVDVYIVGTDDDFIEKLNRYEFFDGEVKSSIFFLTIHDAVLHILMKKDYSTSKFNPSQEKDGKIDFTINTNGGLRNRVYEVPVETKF

Pendrin (Homo sapiens) = target: T3, Pendrin (Homo sapiens) (UniProt O43511); assay: Inhibition of pendrin in IL13-stimulated human bronchial epithelial cells assessed as reduction in gluconate gradient-induced intracellular alkalization at 25 uM; assay type: cell-based
T3 sequence (whole entry): T1 sequence (O43511 whole entry)

pIC50 (Pendrin [1]) | pIC50 (Pendrin [2]) | inhibition [3] | inhibition (Pendrin (Homo sapiens)) | SMILES | Activity (Mus musculus)
5.05 | 5.30 | – | – | Cc1n[nH]c(-c2cc(S(=O)(=O)NC3CCCc4ccccc43)c(C)s2)c1C (stereo not given) | inactive
– | – | inactive | Active | Cn1nc(COc2cccc(F)c2)c2c1CCN(C(=O)Nc1ccc(Cl)cc1)C2 | –
